Experimental findings from patent publication US7214663B2, “Tripeptide prodrug compounds” (Medarex, Inc., priority 2001, dated 2007) are described below.

In one data set the test system is Namalwa cells (CD10pos). In words: cells. In kind it is cell-based, human. Conditions: 24 hours, 3H-thymidine. How it is done: (§1) In addition to LNCaP, a number of B-cell lines, such as Ramos and Namalwa cells express CD10 (CD10^pos cells).
(§2) Suspension cells, BALL-1, Ramos and Namalwa cells were cultured in RPMI media containing 10% heat inactivated fetal calf serum (FCS). On the day of the study, the cells were collected, washed and resuspended at a concentration of 0.5×10^6 cells/ml in RPMI containing 10% FCS. 100 μl of cell suspension was added to 96 well plates. […] Finally 10 μl of a 100 μCi/ml ^3H-thymidine was added per well and the plates were incubated for 24 hours. The plates were harvested using a 96 well Harvester (Packard Instruments) and counted on a Packard Top Count counter. Four parameter logistic curves were fitted to the ^3H-thymidine incorporation as a function of drug molarity using Prism software to determine IC50 values.

For the next data set, the system named is tumor-bearing nude mice. Nature of the data set: Repeat-dose tolerability / repeat dose MTD in tumor bearing mice. The class given is in vivo, mouse. An excerpt:
(§3) In one study, one animal in each dose group (n=8) was terminated as a possible drug-related toxicity death late in the study, at Days 58 and 57 in the low and high dose-groups respectively. The safety of the compound was evidenced by little body weight loss in either the high or low dose groups (less than 5% of the initial weight) during the 60-day observation period, in surviving animals (FIG. 14). In the other study, both the high and low dose were well tolerated. Only one animal in the high dose group (n=10) had over 15% of body weight loss at the end of the study (Day 61).
(§4) In repeat-dose studies in tumor bearing mice, groups of ten mice were dosed with various amounts of prodrug for a total of five doses at either five day or 1 week intervals. […] Thus, the prodrugs permit a much greater amount of therapeutic agent to be delivered to the body as a whole and thus to the vicinity of the target cell.

Experiment in data set [1]: as above
In kind it is in vivo, mouse. To be noted: mouse, in vivo, intravenous, five doses, based on efficacy study in Example 12.
Excerpt: as §3, §4

Data set [2] concerns human colon carcinoma (LS174T). In words: LS174T xenograft efficacy study.
Protocol: Healthy young female nude mice were subcutaneously implanted with chunks of LS174T. […] Tumor size and body weights were measured twice weekly for up to 60 days.
A short description of the next data set: in vivo. To be noted: female, ICR, mouse, iv, 100 umol/kg.
Data set [3] deals with HeLa cell anion exchange fraction (F1), trouase. Nature of the data set: Relative cleavage by HeLa cell anion exchange fraction (F1) versus Suc-βAla-Leu-Ala-Leu standard. The class given is biochemical, human. How it is done: Thirty billion commercially produced HeLa Cells (human cervical carcinoma, Computer Cell Culture Ceizter, Seneffe, Belgium) were homogenized with a sonicator and with a Dounce homogenizer in 108 mL of aqueous lysis solution. The lysis solution contained 0.02% w/v Triton X-100, 0.04% w/v sodium azide, and a cocktail of protease inhibitors (2 tablets/50 mL Complete™, EDTA-free tablets, Roche Molecular Biochemicals). The cell homogenate was centrifuged 30 minutes at 4° C. at 5000×g and the pellet was homogenized in a second 108 mL of lysis solution using a Dounce homogenizer and centrifuged as before. The supernatants were combined and centrifuged for 90 min at 145,000×g at 4° C.
A portion of the ultracentrifugation supernatant was diluted 2-fold with a 20 mM triethanolamine-HCl pH 7.2 buffer containing 0.01% (w/v) Triton X-100 and 0.02% (w/v) sodium azide (equilibration buffer). Thirty mL of the resulting solution, corresponding to approximately 180 mg of protein, was loaded at 4° C. on a 2.6×9.4 cm Source™ 15Q (Amersham Pharmacia Biotech) low pressure anion exchange chromatography column (1 ml/minute). The column was then washed with 250 ml of the equilibration buffer at a flow rate of 1 mL/minute. Proteins were eluted in a NaCl linear concentration gradient (0–0.5 M in the equilibration buffer, total volume of the gradient was 1000 ml) at a flow rate of 3 ml/minute. Two-minute fractions were collected and used for enzyme activity determination using βAla-Leu-Ala-Leu-Dox as the substrate. Its transformation into Ala-Leu-Dox was quantified by reverse phase high performance liquid chromatography utilizing fluorescence detection of the anthracycline moiety. The fractions containing the highest activity levels were pooled (fractions #43–46; ˜0.13 M NaCl), supplemented with protease inhibitors (Complete™, EDTA-free tablets, Roche Molecular Biochemicals), and stored as aliquots at −80° C.
Test compounds were incubated for 2 hr at 37° C. at a concentration of 12.5 μg/mL with HeLa cell anion exchange fraction (F1), as prepared in Example 1(c). Following incubation, three volumes of acetonitrile were added to stop the reaction and remove protein from the mixture. The sample was centrifuged at 18,000 g for 5 minutes and 100 μL of supernatant was mixed with 300 μL of water prior to analysis by HPLC. For HPLC analysis 50 μL of sample was injected on a 4.6×50 mm 2μ TSK Super-ODS chromatography column at 40° C. and eluted with a 3 minute linear gradient from 26% to 68% acetonitrile in aqueous 20 mM ammonium acetate pH 4.5 buffer at 2 mL/min. Detection was by fluorescence using an excitation wavelength of 235 nm and an emission wavelength of 560 nm.
the amount of cleavage of each test compound was compared to the amount of a standard Suc-βAla-Leu-Ala-Leu-therapeutic agent conjugate cleaved by F1 under the same conditions. The therapeutic agent in the standard (Dox or Dnr) was the same as in the test compound. Table 3 provides the relative cleavage rates of several tripeptide prodrugs.

A further data set deals with BALL-1 cells (CD10neg). The class given is cell-based, human. How it is done: as §1, §2
For a further data set, the system named is Ramos cells (CD10pos). In kind it is cell-based, human. Conditions: 24 hours, 3H-thymidine. How it is done: as §1, §2
The conditions of data set [4]: mouse, in vivo, intravenous.

For orientation: pIC50 means the IC50 on a negative log10 scale, so that one unit is a factor of ten. Low values mean a high IC50, high ones a low IC50. For orientation: AUC means concentration integrated over time. Low values mean less exposure, high ones more exposure.

Each structure is given as a SMILES string. pIC50: −log10 of the molar value.

Protocol for in vivo: Plasma was obtained from three individual animals in each group at 5 minutes, 1, 2, 4, or 6 hr.

For `COc1cccc2c1C(=O)c1c(O)c3c(c(O)c1C2=O)C[C@@](O)(C(=O)CO)C[C@@H]3O[C@H]1C[C@H](NC(=O)[C@H](CC(C)C)NC(=O)[C@H](C)NC(=O)[C@H](CC(C)C)NC(=O)CCC(=O)O)[C@H](O)[C@H](C)O1` [Suc-Leu-Ala-Leu-Dox], the pIC50 in the data set with Namalwa cells (CD10pos) is 5.64; in the data set on BALL-1 cells (CD10neg) (Ball-1 (CD10neg), 24 hours, 3H-thymidine), 4.10; in the data set with Ramos cells (CD10pos) it was 5.58. The “acute signs of toxicity following repeat administration” value with tumor-bearing nude mice (52 or 63 mg/kg every 5 days for five doses) is recorded as “no acute signs of toxicity”. Besides, the “body weight loss, % of the initial weight” value in the data set on tumor-bearing nude mice (52 or 63 mg/kg intravenously every 5 days for five doses, 60-day observation) is on record as “less than 5%”. Further, the “Optimal Efficacy Repeat Dose (mg/kg), value in parentheses (doxorubicin equivalent dose)” value with tumor-bearing nude mice (Table 11, five doses at five day or 1 week intervals) stood at 38 mg/kg. Further, in the data set on tumor-bearing nude mice (Table 11, five doses at five day or 1 week intervals, tumor bearing mice, 60 days), the “Optimal Efficacy Repeat Dose” value amounted to 63 mg/kg. This compound returned an MTD at 60 day in data set [1] of about 52 mg/kg. The “Mean Day of Survival” value was found to be 20 days in [2] (52 mg/kg every 5 days for 5 doses) and 32 days in data set [2] (63 mg/kg every 5 days for 5 doses). Moreover, the “anti-tumor activity in LS174T xenograft” value in data set [2] (doxorubicin-insensitive model) is “decreased the rate of tumor growth considerably”. In addition, the AUC in “in vivo” came to 634 µM·h. In data set [3] (2 hr at 37° C., 12.5 μg/mL, HeLa F1, relative to Suc-βAla-Leu-Ala-Leu-(Dox or Dnr) standard), the “Relative Cleavage %” value is given as 62%. Moreover, the “Relative Rate of Cleavage” value in data set [3] (relative to Suc-βAla-Leu-Ala-Leu-Dox = 100 (Tables 11 and 12)) was 62. In addition, the “fold difference between CD10pos and CD10neg cells” value in the data set with BALL-1 cells (CD10neg) is listed as 30-35 fold. In addition, the “Ratio Ball-1:Namalwa” value in the data set on BALL-1 cells (CD10neg) (ratio of IC50) is on record as 35. Moreover, in the data set on BALL-1 cells (CD10neg) (ratio of IC50), the “Ratio Ball-1:Ramos” value worked out at 30. The compound also had an MTD at 28 day in data set [4] of about 59 mg/kg.
